Reference: patent US20260335294A1, “TREATING CONGENITAL DISORDERS OF GLYCOSYLATION” (Mayo Foundation for Medical Education and Research, priority 2022, published 2026)

Key:
[1] = tested on: patient and control fibroblasts; assay: 13C6-fructose incubation of fibroblasts, polyol and hexose pools; assay type: cell-based, human; conditions: 0.15 mM 13C6-fructose, 5.5 mM glucose
Description: Next, the influence of dietary fructose on the urine polyol levels in PMM2-CDG was evaluated. Fructose has become one of the major sources of energy in the western diet and has been associated with numerous disorders such as diabetes, hypertension, obesity, etc. Peripheral fasting fructose levels range between 0.01-0.07 mM and can increase by 5-fold after consumption of a fructose rich meal. […] The possibility of fructose contributing to the polyols increase seen in PMM2-CDG was therefore tested. First, a fructose tolerance test in individuals with PMM2-CDG (P5) was performed. […] Then, to investigate the contribution of fructose in intracellular polyol accumulation, patient and control fibroblasts were incubated in the presence of 5.5 mM glucose and 0.15 mM (average blood fructose concentration upon fructose rich meal)^13C6-fructose and medium containing dialyzed FBS (FIG. 2A).

PMM2-CDG patient (P5) = assay: Fructose tolerance test, urine polyols; assay type: in vivo, human; conditions: P5, fasting, 1 g/kg oral fructose
Description: Fructose tolerance test was performed in P5 according to the standard clinical protocol at fasting state with 1 g/kg oral fructose, and the first voided urine was collected.

Structure (SMILES)	Fractional Contribution (FC) in total hexose pool ([1]; PMM2-CDG and controls) [%]	hexose pool abundance ([1]; dialyzed FBS)	polyol pool abundance ([1]; dialyzed FBS)	fold increase of urine mannitol after fructose tolerance test (PMM2-CDG patient (P5)) [times]	fold increase of urine sorbitol after fructose tolerance test (PMM2-CDG patient (P5))
OCC1(O)OC[C@@H](O)[C@@H](O)[C@@H]1O (some centres unmarked) [^13C6-fructose]	4	increase	increase	–	–
O=C(CO)[C@@H](O)[C@H](O)[C@H](O)CO [fructose]	–	–	–	3	approximately 7 times
